Where a SMILES comes first, the peptide text is derived from it. [ ]: non-standard residue; d: D form. pY = N[C@@H](Cc1ccc(OP(=O)(O)O)cc1)C(=O)O; pT = C[C@@H](OP(=O)(O)O)[C@H](N)C(=O)O
What was measured:
[1] = system: BGC823 cells; test: Xenograft screening of MMP2-targeted peptides by intraperitoneal injection; format: in vivo, BALB/c nude mice
Experimental: (§1) For establishing xenograft mouse models, 5 × 10^6/200 μL of BGC823 cells were subcutaneously injected into flank of BALB/c nude mice. When the tumor volume (V = 0.5 × length × width^2) reached about 100 mm^3, the mice were randomly divided into different groups and received the indicated treatments. General situations and activities of each mouse were daily recorded. Tumor sizes were recorded by caliper every 3 days for calculating tumor volumes. Body weight of the experimental mouse was also recorded every 3 days. The endpoint of the experimental therapy was determined until enough growth (up to 2000 mm^3) of the xenograft tumor or intolerable side effects.
(§2) In the present study, the strategy to screen JWA protein based functional tumor inhibitory peptides included four steps, (1) all the candidate fragments were selected from non-transmembrane regions and contain amino acid can be phosphorylated in its sequence; (2) the intra-tumor injection in xenograft GC tumor in mouse model was used for first round screening for all candidate fragments; (3) the identified functional peptides in (2) were modified with HWGF as MMP2 target and used for secondary screening by intraperitoneal injection in xenograft GC mouse model; (4) the functional peptides selected in (3) were further used to inhibit metastasis of GC (Fig. 1a).

[2] = system: CD31; test: Western blotting of xenograft tumor tissues; format: in vivo, BALB/c nude mice; conditions: nude mice bearing GC
Experimental: (§3) Western blotting analysis was carried out as previously described. The antibodies against MMP2, Tubulin, Ub, HA-tag, Flag-tag and Ki-67 were purchased from Cell Signal Technology (Danvers MA, USA); anti-CD31 and PCNA were provided by Epitomics (MA, USA); anti-GAPDH and Actin were purchased from Beyotime (Jiangsu, China); anti-TRIM25 and SP1 were provided by Proteintech (Wuhan, China); anti-His was purchased from MBL (Japan). All above antibodies were used at a dilution of 1:1000.

[3] = system: MMP2; test: Western blotting of xenograft tumor tissues; format: in vivo, BALB/c nude mice; conditions: nude mice bearing GC
Experimental: as §3

[4] = system: PCNA; test: Western blotting of xenograft tumor tissues; format: in vivo, BALB/c nude mice; conditions: nude mice bearing GC
Experimental: as §3

[5] = system: SP1; test: Western blotting of xenograft tumor tissues; format: in vivo, BALB/c nude mice; conditions: compared to the Ctrl-P-H treatment
Experimental: as §3

[6] = system: TRIM25; test: Western blotting of xenograft tumor tissues; format: in vivo, BALB/c nude mice; conditions: compared to the Ctrl-P-H treatment
Experimental: as §3

[7] = system: CD31 (microvessel density (MVD)); test: IHC of xenograft tumor sections; format: in vivo, BALB/c nude mice
Experimental: (§4) Fig. 1 MMP2-targeted polypeptide JP3 inhibits growth and metastasis of GC in vivo. a The screening flowchart of JWA candidate peptides in nude mice. b The name and amino acid sequence of six fragments. c The ratios of mouse xenograft tumor weight/mice weight from screening model by intratumor injection. d The inhibition rates of tumor growth from screening model by intraperitoneal injection. e The expression levels of MMP2, CD31 and PCNA protein were analyzed using Western blotting in tumor tissues from nude mice bearing GC. f-g Sections of tumors were stained with anti-Ki-67 and anti-CD31 antibodies by IHC (scale bars = 50 μm). h-i The luciferase signals in the mice were detected and photographed using an IVIS in vivo image system. j-k The representative HE staining sections of lung (scale bars = 2 mm). l-m Sections of lung were stained with anti-CD31 antibodies by IHC (scale bars = 50 μm). The data are presented as the means ± SEM, ns: no significance, *P < 0.05, **P < 0.01

[8] = system: Ki-67; test: IHC of xenograft tumor sections; format: in vivo, BALB/c nude mice
Experimental: as §4

[9] = system: BGC823 cells; test: Metastatic GC mouse model (tail vein injection, bioluminescence imaging, HE staining of lung); format: in vivo, BALB/c nude mice
Experimental: For establishment of metastatic GC mouse model, five-week-old BALB/c nude mice were randomly divided into two groups, 3 mice each. BGC823 cells were suspended in PBS. The mice were injected intravenously with 2 × 10^6 cells in 0.15 mL of PBS through tail vein. On next day, the mice were treated by intra-peritoneal (ip) injection of Ctrl-H-P and JP3 and followed by luciferase substrate (GM-040611, Genomeditech, China); and photographed using the IVIS Spectrum in vivo imaging system (PerkinElmer, USA) on day 50th to observe the cancer cell metastasis.

[10] = system: CD31; test: IHC of lung sections, metastatic GC mouse model; format: in vivo, BALB/c nude mice
Experimental: as §4
For establishment of metastatic GC mouse model, five-week-old BALB/c nude mice were randomly divided into two groups, 3 mice each. BGC823 cells were suspended in PBS. The mice were injected intravenously with 2 × 10^6 cells in 0.15 mL of PBS through tail vein. […]

[11] = system: BGC823 cells; test: Colony formation assay; format: cell-based, human; conditions: different concentrations of JP3
[12] = system: HUVECs; test: HUVECs tube formation assay with conditional medium of peptide-treated GC cells; format: cell-based, human; conditions: 4 h on Matrigel
Experimental: After 6 hours of peptide treatment of GC cells, the medium was replaced and cultured in a 60 mm petri dish containing 1% serum for 24 h. On the next day, 2 mL of conditional medium was collected. For tube formation assay, a 96-well plate was coated with 50 μL of Matrigel™ (BD Biosciences) and kept at 37 °C for 2 h. Then, 1.2 × 10^4 HUVECs suspended in 100 μL of conditional medium were applied to each well of the precoated 96-well plate. After incubation at 37 °C for 4 h, tubular structures formed in the Matrigel were captured in five randomly selected fields per sample under a microscope.

[13] = system: HUVECs; test: HUVECs tube formation assay, direct treatment of HUVECs; format: cell-based, human; conditions: HUVECs treated at similar dose for 24 h
[14] = system: SP1; test: Western blotting in GC cells; format: cell-based; conditions: SGC7901 and BGC823 (Non(p)-JP3: BGC823, 24 h)
Experimental: as §3

[15] = system: JWA; test: Western blotting in GC cells; format: cell-based, human; conditions: SGC7901 and BGC823
Experimental: as §3

[16] = system: MMP2; test: Western blotting in GC cells; format: cell-based, human; conditions: SGC7901 and BGC823 (Non(p)-JP3: BGC823, 24 h)
Experimental: as §3

[17] = system: TRIM25; test: Western blotting in BGC823 cells; format: cell-based, human; conditions: 0, 1, 10, 50 μM for 24 h
Experimental: as §3

[18] = system: SP1; test: Protein stability, CHX chase and Western blotting; format: cell-based, human; conditions: BGC823 cells; 50 μM for 24 h, then CHX
Experimental: as §3

[19] = system: TRIM25; test: Protein stability, CHX chase and Western blotting; format: cell-based, human; conditions: BGC823 cells; 50 μM for 12 h, then CHX
Experimental: as §3

[20] = system: SP1; test: Ubiquitination assay; format: cell-based, human
Experimental: (§5) GC cells were treated with or without JP3, followed by incubation with MG132 (10 μM) for another 6 h. Cells were harvested, prepared for protein samples and divided for Western blotting and co-IP assay, respectively. For co-IP assay, the protein (500 μg) was cultured with anti-SP1 or anti-TRIM25 antibody (dilution: 1:250) at 4 °C for 1 h, and Protein A/G Plus-Agarose overnight. After three cycles of washing in pre-cold IP buffer and centrifugation at 4 °C, 1000×g for 5 min, the immunoprecipitate was collected by centrifugation, eluted and examined by Western blotting.

[21] = system: TRIM25; test: Ubiquitination assay; format: cell-based, human; conditions: BGC823 cells; His-Ub 48 h, 50 μM 24 h, MG132 10 μM 6 h; IP anti-TRIM25
Experimental: as §5

[22] = system: SP1 mRNA; test: qRT-PCR; format: cell-based, human; conditions: BGC823 and SGC7901 cells
Experimental: (§6) According to the manufacturer’s protocol, total RNAs were isolated using TRIzol (Invitrogen, CA, USA) and reversely transcribed into cDNAs using reverse transcription kit and the SYBR Green Master Mix kit (Takara, Otsu, Japan). The complementary DNA (cDNA) was amplified with the following primers: 5′-[…]-3′ (forward) and 5′-[…]-3′ (reverse) for TRIM25; 5′-[…]-3′ (forward) and 5′-[…]-3′ (reverse) for GAPDH; 5′-[…]’-3′ (forward) and 5′-[…]-3′ (reverse) for SP1. Quantitative RT-PCR was carried out an ABI Prism 7900 Sequence detection system (Applied Biosystems, Canada). Relative levels were normalized to that of GAPDH.

[23] = system: TRIM25 mRNA; test: qRT-PCR; format: cell-based, human
Experimental: as §6

[24] = Toxicity and body weight in treated mice; format: in vivo, BALB/c nude mice; conditions: xenograft and metastatic mice models
[25] = system: BGC823 cells; test: Xenograft screening of candidate peptides by intra-tumor injection; format: in vivo, BALB/c nude mice; conditions: BGC823 subcutaneous xenograft; intra-tumor injection 10 mg/kg/d for 5 days/week x 2 weeks
Experimental: as §1, §2

## CSCC[C@H](NC(=O)[C@H](CCCNC(=N)N)NC(C)=O)C(=O)N[C@@H](CCCCN)C(=O)N[C@@H](CCCCN)C(=O)N[C@@H](CCCNC(=N)N)C(=O)N[C@@H](Cc1ccc(O)cc1)C(=O)N1CCC[C@H]1C(=O)N[C@H](C(=O)N[C@H](C(=O)N[C@@H](Cc1ccccc1)C(=O)N[C@H](C(=O)N[C@@H](CCSC)C(=O)N[C@H](C(=O)N[C@H](C(=O)NCC(=O)NCC(=O)NCC(=O)NCC(=O)N[C@@H](Cc1c[nH]cn1)C(=O)N[C@@H](Cc1c[nH]c2ccccc12)C(=O)NCC(=O)N[C@@H](Cc1ccccc1)C(N)=O)C(C)C)C(C)C)C(C)C)[C@@H](C)OP(=O)(O)O)[C@@H](C)O [JP3] (Ac-RMKKRYPT[pT]FVMVVGGGGHWGF-NH2)
[1]; BGC823 subcutaneous xenograft, intraperitoneal injection 50 mg/kg/d for 12 days
  tumor inhibitory rate (inhibition of xenograft tumor growth): best tumor inhibitory rate among candidates
[2]
  expression of CD31 in GC tumor tissues: down-regulated
[3]
  expression of MMP2 in GC tumor tissues: down-regulated
[4]
  expression of PCNA in GC tumor tissues: down-regulated
[5]
  expression of SP1 in GC tumor tissues: down-regulated
[6]
  expression of TRIM25 in GC tumor tissues: up-regulated
[7]
  expression of CD31 (microvessel density (MVD)) in GC tumor tissues: suppressed
[8]
  expression of Ki-67 in GC tumor tissues: suppressed
[9]; HE staining
  relative area of metastatic tumor in lung: significantly decreased
[9]; bioluminescence imaging on day 50, ip injection, compared with Ctrl-P-H group, 3 mice each
  fluorescence intensity of GC cell metastatic foci: obviously reduced
[10]
  expression of CD31 in GC metastatic tissues: significantly suppressed
[11]
  effect on GC cell proliferation in vitro (colony numbers): no obvious effects
[12]; supernatent of peptide-treated BGC823 cells
  tubular formation of HUVECs: dose-dependently inhibited
[12]; supernatent of peptide-treated SGC7901 cells
  tubular formation of HUVECs: dose-dependently inhibited
[13]
  tubular formation of HUVECs, direct treatment: no obvious effects
[14]
  expression of SP1 in GC cells: down-regulated
[15]
  expression of JWA in GC cells: no obvious effect
[16]
  expression of MMP2 in GC cells: down-regulated
[17]
  TRIM25 protein level: dose-dependent increase
[18]
  degradation (stability) of SP1: accelerated degradation
[19]
  degradation (stability) of TRIM25: slowed down the degradation
[20]; BGC823, His-ub, JP3 50 μM, with MG132 10 μM 6 h, control = 1.00, MG132 alone 1.50
  relative band intensity printed with the blot (IP: SP1, IB: ubiquitin): 2.17
[20]; BGC823 and SGC7901 cells, His-ub 48 h, 50 μM for 24 h, IP anti-SP1
  ubiquitinated SP1: increased
[21]
  ubiquitinated TRIM25: decreased
[22]
  mRNA level of SP1: not affected
[23]
  mRNA level of TRIM25: not affected
[24]
  side effects: undetectable side effects

## CSCC[C@H](NC(=O)[C@H](CCCNC(=N)N)NC(C)=O)C(=O)N[C@@H](CCCCN)C(=O)N[C@@H](CCCCN)C(=O)N[C@@H](CCCNC(=N)N)C(=O)N[C@@H](Cc1ccc(OP(=O)(O)O)cc1)C(=O)N1CCC[C@H]1C(=O)N[C@H](C(=O)N[C@H](C(=O)N[C@@H](Cc1ccccc1)C(=O)N[C@H](C(=O)N[C@@H](CCSC)C(=O)N[C@H](C(=O)N[C@H](C(N)=O)C(C)C)C(C)C)C(C)C)[C@@H](C)O)[C@@H](C)O [PJP3–1] (Ac-RMKKR[pY]PTTFVMVV-NH2)
[25]
  tumor inhibitory effect (ratio of mouse xenograft tumor weight/mice weight): better effects than the others

## CSCC[C@H](NC(=O)[C@H](CCCNC(=N)N)NC(C)=O)C(=O)N[C@@H](CCCCN)C(=O)N[C@@H](CCCCN)C(=O)N[C@@H](CCCNC(=N)N)C(=O)N[C@@H](Cc1ccc(O)cc1)C(=O)N1CCC[C@H]1C(=O)N[C@H](C(=O)N[C@H](C(=O)N[C@@H](Cc1ccccc1)C(=O)N[C@H](C(=O)N[C@@H](CCSC)C(=O)N[C@H](C(=O)N[C@H](C(N)=O)C(C)C)C(C)C)C(C)C)[C@@H](C)OP(=O)(O)O)[C@@H](C)O [PJP3–3] (Ac-RMKKRYPT[pT]FVMVV-NH2)
[25]
  tumor inhibitory effect (ratio of mouse xenograft tumor weight/mice weight): better effects than the others

## CC[C@H](C)[C@H](NC(C)=O)C(=O)NCC(=O)N[C@@H](CC(C)C)C(=O)N[C@@H](CCCCN)C(=O)N[C@@H](CCCNC(=N)N)C(=O)N[C@H](C(=O)N1CCC[C@H]1C(=O)N[C@@H](CCSC)C(=O)NCC(=O)N[C@H](C(=O)N[C@H](C(N)=O)C(C)C)[C@@H](C)CC)[C@@H](C)OP(=O)(O)O [PJP5] (Ac-IGLKR[pT]PMGIV-NH2)
[25]
  tumor inhibitory effect (ratio of mouse xenograft tumor weight/mice weight): better effects than the others

## HWGF [histidine-tryptophan-glycine-phenylalanine, reference compound]
[1]; HWGF targeting MMP2 alone
  biological function to inhibit gastric cancer: no biological function to inhibit gastric cancer

Reference: article PMC7310436, “JP3, an antiangiogenic peptide, inhibits growth and metastasis of gastric cancer through TRIM25/SP1/MMP2 axis” (Journal of Experimental & Clinical Cancer Research : CR, 2020)
